Measurements published in ChEMBL document CHEMBL1201862, “PubChem BioAssay data set” (2004).
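Compound exposure: 48 hours, 5 concentrations, 96-well plates. Abbreviation: GI50, concentration required for 50% inhibition of growth.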 Activity calls are given as the source filed them. No stated cut-off is given here; in the data, active = GI50 up to about 1.1 µM and inactive = higher.

How the values were obtained:
Test in all cases: DTP human tumour cell line panel, 48 h
MOLT-4 = system: MOLT-4
IGROV-1 = system: IGROV-1
DMS-273 = system: DMS-273
KM-20L2 = system: KM-20L2
XF498 = system: XF498
NCI-H460 = system: NCI-H460
OVCAR-4 = system: OVCAR-4
HOP-92 = system: HOP-92
HT-29 = system: HT-29
SF-539 = system: SF-539
A549 = system: A549
M14 = system: M14
ACHN = system: ACHN
SNB-75 = system: SNB-75
LOX IMVI = system: LOX IMVI
SR = system: SR
SK-MEL-28 = system: SK-MEL-28
SK-MEL-2 = system: SK-MEL-2
SF-295 = system: SF-295
SNB-19 = system: SNB-19
RPMI-8226 = system: RPMI-8226
CAKI-1 = system: CAKI-1
SNB-78 = system: SNB-78
EKVX = system: EKVX
HCT-116 = system: HCT-116
SW-620 = system: SW-620
NCI-H23 = system: NCI-H23
NCI-H522 = system: NCI-H522
HL-60 = system: HL-60
A498 = system: A498
OVCAR-5 = system: OVCAR-5
SF-268 = system: SF-268
TK-10 = system: TK-10
DMS-114 = system: DMS-114
RXF 393 = system: RXF 393
OVCAR-8 = system: OVCAR-8
NCI-H226 = system: NCI-H226
SK-MEL-5 = system: SK-MEL-5
UO-31 = system: UO-31
SK-OV-3 = system: SK-OV-3
U-251 = system: U-251
K562 = system: K562
KM12 = system: KM12
DLD-1 = system: DLD-1
HOP-62 = system: HOP-62
SN12C = system: SN12C
Malme-3M = system: Malme-3M
LXFL 529 = system: LXFL 529
CCRF-CEM = system: CCRF-CEM
COLO 205 = system: COLO 205
HCC 2998 = system: HCC 2998
786-0 = system: 786-0
UACC-62 = system: UACC-62
OVCAR-3 = system: OVCAR-3
M19-MEL = system: M19-MEL
HCT-15 = system: HCT-15

Nc1ccc(C(=O)N/C(=C\c2cccc([N+](=O)[O-])c2)c2nc3ccccc3[nH]2)cc1
GI50 (MOLT-4): > 100 µM (inactive)
GI50 (IGROV-1): 28.5 µM (inactive)
GI50 (DMS-273): 55.2 µM (inactive)
GI50 (KM-20L2): > 87.1 µM (inactive)
GI50 (XF498): 23.5 µM (inactive)
GI50 (NCI-H460): 74.8 µM (inactive)
GI50 (OVCAR-4): 25.1 µM (inactive)
GI50 (HOP-92): 23.6 µM (inactive)
GI50 (HT-29): > 100 µM (inactive)
GI50 (SF-539): 22.8 µM (inactive)
GI50 (A549): 51.3 µM (inactive)
GI50 (M14): > 100 µM (inactive)
GI50 (ACHN): 40.6 µM (inactive)
GI50 (SNB-75): 23.3 µM (inactive)
GI50 (LOX IMVI): > 100 µM (inactive)
GI50 (SR): > 100 µM (inactive)
GI50 (SK-MEL-28): > 92.9 µM (inactive)
GI50 (SK-MEL-2): 37.2 µM (inactive)
GI50 (SF-295): 28.4 µM (inactive)
GI50 (SNB-19): 40.6 µM (inactive)
GI50 (RPMI-8226): > 100 µM (inactive)
GI50 (CAKI-1): 47 µM (inactive)
GI50 (SNB-78): 57.3 µM (inactive)
GI50 (EKVX): > 88.1 µM (inactive)
GI50 (HCT-116): 41.4 µM (inactive)
GI50 (SW-620): > 100 µM (inactive)
GI50 (NCI-H23): > 75.9 µM (inactive)
GI50 (NCI-H522): 36.6 µM (inactive)
GI50 (HL-60): > 81.7 µM (inactive)
GI50 (A498): 61.8 µM (inactive)
GI50 (OVCAR-5): > 100 µM (inactive)
GI50 (SF-268): 21.8 µM (inactive)
GI50 (TK-10): 49 µM (inactive)
GI50 (DMS-114): 29.4 µM (inactive)
GI50 (RXF 393): 24.9 µM (inactive)
GI50 (OVCAR-8): 33.1 µM (inactive)
GI50 (NCI-H226): > 100 µM (inactive)
GI50 (SK-MEL-5): 76.4 µM (inactive)
GI50 (UO-31): 20.6 µM (inactive)
GI50 (SK-OV-3): 29.2 µM (inactive)
GI50 (U-251): 41.4 µM (inactive)
GI50 (K562): > 100 µM (inactive)
GI50 (KM12): > 100 µM (inactive)
GI50 (DLD-1): 66.8 µM (inactive)
GI50 (HOP-62): 21.8 µM (inactive)
GI50 (SN12C): 83.9 µM (inactive)
GI50 (Malme-3M): 57.3 µM (inactive)
GI50 (LXFL 529): 29.4 µM (inactive)
GI50 (CCRF-CEM): > 100 µM (inactive)
GI50 (COLO 205): > 100 µM (inactive)
GI50 (HCC 2998): > 100 µM (inactive)
GI50 (786-0): 28.4 µM (inactive)
GI50 (UACC-62): 46 µM (inactive)
GI50 (OVCAR-3): 50.2 µM (inactive)
GI50 (M19-MEL): > 100 µM (inactive)
GI50 (HCT-15): 76.6 µM
